According to the supplement of paper PMC10307832:

Legend:
Assay in all cases: relative viability (nuclei count vs DMSO), 5 days (fraction); higher = more cells survive
[1] = compound: C[C@@]1(C(=O)Nc2ccc(F)nc2)CCCN1c1nc(Nc2cc(C3CC3)n[nH]2)c2cccn2n1
Method in brief: (§1)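 Lung cancer cell lines were seeded into 1536-well plates, kept overnight at 37 °C and pinned with five library-drug doses (not always all listed) spaced by √10. After 5 days, nuclei were Hoechst-stained, imaged at 4× and counted with MetaXpress. Viability is treated-well nuclei over vehicle-well nuclei, taken as a median across plates. Plates needed control CV below 25% and at least one doubling.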

Motesanib = compound: CC1(C)CNc2cc(NC(=O)c3cccnc3NCc3ccncc3)ccc21 [Motesanib]
Method in brief: as §1

[2] = compound: C[C@@]1(C(=O)Nc2ccc(F)nc2)CCCN1c1nc(Nc2cc(C3CC3)n[nH]2)c2cccn2n1 + Nc1nc2[nH]cc(CCc3ccc(C(=O)N[C@@H](CCC(=O)O)C(=O)O)cc3)c2c(=O)[nH]1 [Pemetrexed] (partner 0.2 µM)
Method in brief: (§2)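 Lung cancer cell lines in 1536-well plates got either a single drug or a fixed anchor-drug dose together with five library-drug doses (not always all listed) in √10 steps, by pin tool, on the day after seeding. Nuclei were counted after 5 days, and relative viability is the treated-to-vehicle ratio of nuclei counts. Values are medians of duplicate plates.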

Motesanib + OSI-027 = compound: CC1(C)CNc2cc(NC(=O)c3cccnc3NCc3ccncc3)ccc21 [Motesanib] + COc1cccc2cc(-c3nc([C@H]4CC[C@H](C(=O)O)CC4)n4ncnc(N)c34)[nH]c12 [OSI-027] (partner 0.5 µM)
Method in brief: as §2

| Cell Line | relative viability ([1]; 0.04 µM) | relative viability ([1]; 0.1265 µM) | relative viability ([1]; 0.4 µM) | relative viability ([1]; 1.265 µM) | relative viability (Motesanib; 0.01 µM) | relative viability (Motesanib; 0.03162 µM) | relative viability (Motesanib; 0.1 µM) | relative viability (Motesanib; 0.3162 µM) | relative viability (Motesanib; 1 µM) | relative viability ([2]; first compound 0.04 µM) | relative viability ([2]; first compound 0.1265 µM) | relative viability ([2]; first compound 0.4 µM) | relative viability ([2]; first compound 1.265 µM) | relative viability (Motesanib + OSI-027; first compound 0.01 µM) | relative viability (Motesanib + OSI-027; first compound 0.03162 µM) | relative viability (Motesanib + OSI-027; first compound 0.1 µM) | relative viability (Motesanib + OSI-027; first compound 0.3162 µM) | relative viability (Motesanib + OSI-027; first compound 1 µM) |
| --- | --- | --- | --- | --- | --- | --- | --- | --- | --- | --- | --- | --- | --- | --- | --- | --- | --- | --- |
| 201T | 0.955 | 0.833 | 0.682 | 0.796 | 0.982 | 0.971 | 1.02 | 0.987 | 0.963 | 0.324 | 0.285 | 0.294 | 0.304 | 0.683 | 0.726 | 0.779 | 0.506 | 0.69 |
| A549 | 0.869 | 0.693 | 0.509 | 0.589 | 0.951 | 0.958 | 1 | 1.01 | 1.02 | – | – | – | – | – | – | – | – | – |
| A-427 | 1.09 | 0.944 | 0.889 | 0.797 | 0.944 | 1.01 | 0.894 | 1.03 | 1.06 | 0.989 | 0.939 | 0.927 | 0.813 | 0.4 | 0.459 | 0.485 | 0.545 | 0.5 |
| ABC-1 | 0.884 | 0.738 | 0.51 | 0.507 | 0.919 | 0.938 | 0.863 | 1.09 | 0.97 | – | – | – | – | 0.438 | 0.521 | 0.407 | 0.332 | 0.604 |
| BEN | 1.09 | 0.959 | 0.935 | 0.929 | 0.902 | 0.964 | 0.927 | 0.998 | 1.19 | 0.919 | 0.65 | 0.616 | 0.653 | 0.281 | 0.277 | 0.272 | 0.291 | 0.31 |
| CAL-12T | 1.03 | 0.863 | 0.884 | 0.664 | 0.951 | 0.975 | 0.967 | 1.05 | 0.965 | 0.818 | 0.999 | 0.777 | 0.812 | 0.628 | 0.731 | 0.685 | 0.555 | 0.677 |
| COR-L23 | 1.13 | 0.985 | 0.886 | 0.774 | 1.01 | 0.962 | 1.03 | 1.04 | 1.07 | 0.203 | 0.198 | 0.173 | 0.183 | 0.788 | 0.721 | 0.874 | 0.753 | 0.806 |
| COR-L 105 | 1.01 | 0.662 | 0.781 | 0.681 | 1.05 | 0.875 | 0.905 | 0.957 | 0.997 | 1.07 | 0.658 | 0.865 | 1.1 | 0.768 | 0.7 | 0.717 | 0.689 | 0.626 |
| Calu-6 | 1.11 | 0.948 | 0.884 | 0.844 | 1 | 0.98 | 1 | 1.05 | 0.987 | – | – | – | – | – | – | – | – | – |
| ChaGo-K-1 | 0.955 | 0.826 | 0.899 | 0.914 | 0.973 | 0.931 | 0.932 | 0.999 | 1.04 | 0.252 | 0.253 | 0.273 | 0.258 | 0.637 | 0.474 | 0.495 | 0.597 | 0.563 |
| EBC-1 | 1.01 | 0.772 | 0.769 | 0.664 | 1.01 | 0.927 | 1.01 | 1.03 | 0.954 | – | – | – | – | – | – | – | – | – |
| EKVX | 0.963 | 0.762 | 0.733 | 0.815 | 0.919 | 1 | 1.01 | 0.928 | 1.08 | 0.415 | 0.307 | 0.349 | 0.356 | 0.684 | 0.655 | 0.788 | 0.732 | 0.674 |
| EMC-BAC-2 | 0.848 | 0.766 | 0.642 | 0.593 | 0.964 | 1.01 | 0.987 | 1.05 | 0.95 | 0.454 | 0.42 | 0.471 | 0.439 | 0.398 | 0.341 | 0.36 | 0.412 | 0.378 |
| EPLC-272H | 1.04 | 0.645 | 0.744 | 0.764 | 0.918 | 1.04 | 0.761 | 1.04 | 0.976 | 0.358 | 0.291 | 0.349 | 0.23 | 0.236 | 0.311 | – | 0.263 | 0.244 |
| H3255 | 1.05 | 0.954 | 0.931 | 0.882 | 0.905 | 1.04 | 0.978 | 1.05 | 1.01 | 0.602 | 0.523 | 0.528 | 0.484 | 0.608 | 0.601 | 0.603 | 0.558 | 0.635 |
| HARA | 0.815 | 1.01 | 0.756 | 0.723 | 0.959 | 1.1 | 0.909 | 1.09 | 0.997 | 0.222 | 0.241 | 0.227 | 0.228 | 0.439 | 0.724 | 0.527 | 0.554 | 0.557 |
| HCC-15 | 0.85 | 0.667 | 0.727 | 0.764 | 0.955 | 0.972 | 0.896 | 1.16 | 1.01 | 0.216 | 0.225 | 0.209 | 0.211 | 0.693 | 0.65 | 0.64 | 0.817 | 0.64 |
| HCC-44 | 0.99 | 0.904 | 0.716 | 0.737 | 0.978 | 0.957 | 1.02 | 1.04 | 0.989 | 0.688 | 0.6 | 0.627 | 0.618 | 0.552 | 0.431 | 0.633 | 0.633 | 0.544 |
| HCC-78 | 0.968 | 0.686 | 0.496 | 0.44 | 0.891 | 0.957 | 0.957 | 0.92 | 1.03 | 0.898 | 0.898 | 0.913 | 0.922 | 0.343 | 0.348 | 0.405 | 0.345 | 0.297 |
